{"source": "patent US10968225B2", "about": "“Compounds and compositions for the treatment of cystic fibrosis” (Fondazione Istituto Italiano Di Tecnologia, priority 2017, dated 2021)", "molecular_target": "T1, mutant CFTR (Homo sapiens, UniProt P13569, DEL508-508)", "T1 construct": "expressed in transfected cells", "T1 sequence (P13569 with tags, fused parts or gaps DEL508-508)": "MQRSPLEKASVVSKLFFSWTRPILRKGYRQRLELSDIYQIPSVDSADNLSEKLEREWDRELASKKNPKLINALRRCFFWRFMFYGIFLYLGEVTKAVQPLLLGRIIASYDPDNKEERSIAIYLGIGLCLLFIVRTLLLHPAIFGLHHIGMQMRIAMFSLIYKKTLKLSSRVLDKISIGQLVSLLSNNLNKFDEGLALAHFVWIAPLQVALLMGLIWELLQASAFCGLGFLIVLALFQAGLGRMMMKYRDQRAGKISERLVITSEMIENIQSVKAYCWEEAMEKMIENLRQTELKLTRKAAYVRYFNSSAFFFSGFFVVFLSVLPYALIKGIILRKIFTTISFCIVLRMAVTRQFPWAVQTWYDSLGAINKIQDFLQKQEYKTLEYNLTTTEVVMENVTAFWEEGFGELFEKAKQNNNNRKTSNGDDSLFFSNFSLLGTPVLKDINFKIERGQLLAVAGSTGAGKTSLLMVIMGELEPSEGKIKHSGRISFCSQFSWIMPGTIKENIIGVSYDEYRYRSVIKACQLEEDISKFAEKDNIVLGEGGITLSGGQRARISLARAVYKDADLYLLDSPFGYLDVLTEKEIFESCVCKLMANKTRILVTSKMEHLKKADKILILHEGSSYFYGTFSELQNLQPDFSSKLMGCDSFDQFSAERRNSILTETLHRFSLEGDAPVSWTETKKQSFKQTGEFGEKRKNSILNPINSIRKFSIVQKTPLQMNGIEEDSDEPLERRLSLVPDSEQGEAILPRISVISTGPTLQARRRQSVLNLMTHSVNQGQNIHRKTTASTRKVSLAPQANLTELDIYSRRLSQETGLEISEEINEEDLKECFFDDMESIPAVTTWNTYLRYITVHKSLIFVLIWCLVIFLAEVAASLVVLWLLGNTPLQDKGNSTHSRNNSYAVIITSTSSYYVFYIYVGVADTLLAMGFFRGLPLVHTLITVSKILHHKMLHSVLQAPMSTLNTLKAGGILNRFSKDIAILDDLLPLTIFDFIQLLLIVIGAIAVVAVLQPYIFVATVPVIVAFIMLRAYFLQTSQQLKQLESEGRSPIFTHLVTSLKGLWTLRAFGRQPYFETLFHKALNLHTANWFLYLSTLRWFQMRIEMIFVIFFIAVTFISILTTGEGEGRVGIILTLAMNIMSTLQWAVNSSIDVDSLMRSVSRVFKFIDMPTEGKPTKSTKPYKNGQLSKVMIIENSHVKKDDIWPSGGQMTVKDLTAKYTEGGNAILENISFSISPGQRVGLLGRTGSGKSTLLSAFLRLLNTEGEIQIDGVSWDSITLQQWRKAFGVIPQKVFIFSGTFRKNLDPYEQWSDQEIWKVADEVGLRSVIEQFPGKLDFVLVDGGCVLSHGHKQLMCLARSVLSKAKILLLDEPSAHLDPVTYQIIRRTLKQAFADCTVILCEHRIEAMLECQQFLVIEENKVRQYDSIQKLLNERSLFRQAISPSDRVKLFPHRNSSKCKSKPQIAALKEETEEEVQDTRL", "assay": "Fluorescence (HS-YFP) assay for CFTR activity, corrector assay", "format": "cell-based", "details": "CFBE41o- and FRT cells with stable expression of mutant CFTR, read-out: activity (EC50)", "note": "Structures can show the parent of a compound that is named as a salt.", "data": [{"smiles": "CN(C(=O)c1cccc(-n2nc(C(F)(F)F)c3c2CN(C(=O)OC(C)(C)C)CC3)c1)c1ccc2c(c1)OCO2", "note": "[Compound 027, tert-Butyl 1-[3-[1,3-benzodioxol-5-yl(methyl)carbamoyl]phenyl]-3-(trifluoromethyl)-5,7-dihydro-4H-pyrazolo[3,4-c]pyridine-6-carboxylate]", "values": [{"measurement": "EC50", "result": "< 1", "unit": "µM"}]}, {"smiles": "CN(C(=O)c1cccc(-n2nc(C(F)(F)F)c3c2CCCN3C(=O)OC(C)(C)C)c1)c1ccc2c(c1)OCO2", "note": "[Compound 028, tert-Butyl 1-[3-[1,3-benzodioxol-5-yl(methyl)carbamoyl]phenyl]-3-(trifluoromethyl)-6,7-dihydro-5H-pyrazolo[4,3-b]pyridine-4-carboxylate]", "values": [{"measurement": "EC50", "result": "< 1", "unit": "µM"}]}, {"smiles": "CN1CCc2c(C(F)(F)F)nn(-c3cccc(C(=O)N(C)c4ccc5c(c4)OCO5)c3)c2C1", "note": "[Compound 029, N-(1,3-Benzodioxol-5-yl)-N-methyl-3-[6-methyl-3-(trifluoromethyl)-5,7-dihydro-4H-pyrazolo[3,4-c]pyridin-1-yl]benzamide]", "values": [{"measurement": "EC50", "result": "< 1", "unit": "µM"}]}, {"smiles": "Cc1nc2ccc(N(C)C(=O)c3cccc(-n4nc(C(F)(F)F)c5c4CCNC5)c3)cc2o1", "note": "[Compound 030, N-Methyl-N-(2-methyl-1,3-benzoxazol-6-yl)-3-[3-(trifluoromethyl)-4,5,6,7-tetrahydropyrazolo[4,3-c]pyridin-1-yl]benzamide hydrochloride]", "values": [{"measurement": "EC50", "result": "1 to 2", "unit": "µM"}]}, {"smiles": "CC(C)C(=O)N1CCc2c(c(C(F)(F)F)nn2-c2cccc(C(=O)N(C)c3ccc4c(c3)OCO4)c2)C1", "note": "[Compound 031, N-(1,3-Benzodioxol-5-yl)-N-methyl-3-[5-(2-methylpropanoyl)-3-(trifluoromethyl)-6,7-dihydro-4H-pyrazolo[4,3-c]pyridin-1-yl]benzamide]", "values": [{"measurement": "EC50", "result": "< 1", "unit": "µM"}]}, {"smiles": "CN(C(=O)c1cccc(-n2nc(C(F)(F)F)c3c2CCN(C(=O)C(C)(C)C(F)(F)F)C3)c1)c1ccc2c(c1)OCO2", "note": "[Compound 033, N-(1,3-Benzodioxol-5-yl)-N-methyl-3-[5-(3,3,3-trifluoro-2,2-dimethyl-propanoyl)-3-(trifluoromethyl)-6,7-dihydro-4H-pyrazolo[4,3-c]pyridin-1-yl]benzamide]", "values": [{"measurement": "EC50", "result": "< 1", "unit": "µM"}]}, {"smiles": "CN(C(=O)c1cccc(-n2nc(C(F)(F)F)c3c2CCN(C(=O)C2(O)CC2)C3)c1)c1ccc2c(c1)OCO2", "note": "[Compound 034, N-(1,3-Benzodioxol-5-yl)-3-[5-(1-hydroxycyclopropanecarbonyl)-3-(trifluoromethyl)-6,7-dihydro-4H-pyrazolo[4,3-c]pyridin-1-yl]-N-methyl-benzamide]", "values": [{"measurement": "EC50", "result": "< 1", "unit": "µM"}]}, {"smiles": "CN(C(=O)c1cccc(-n2nc(C(F)(F)F)c3c2CCN(C(=O)C(C)(C)c2ccccc2)C3)c1)c1ccc2c(c1)OCO2", "note": "[Compound 035, N-(1,3-Benzodioxol-5-yl)-N-methyl-3-[5-(2-methyl-2-phenyl-propanoyl)-3-(trifluoromethyl)-6,7-dihydro-4H-pyrazolo[4,3-c]pyridin-1-yl]benzamide]", "values": [{"measurement": "EC50", "result": "< 1", "unit": "µM"}]}, {"smiles": "Cc1nc2cc(F)c(N(C)C(=O)c3cccc(-n4nc(C(F)(F)F)c5c4CCN(C(=O)OC(C)(C)C)C5)c3)cc2o1", "note": "[Compound 036, tert-Butyl 1-[3-[(5-fluoro-2-methyl-1,3-benzoxazol-6-yl)-methylcarbamoyl]phenyl]-3-(trifluoromethyl)-6,7-dihydro-4H-pyrazolo[4,3-c]pyridine-5-carboxylate]", "values": [{"measurement": "EC50", "result": "< 1", "unit": "µM"}]}, {"smiles": "Cc1nc2cc(F)c(NC(=O)c3cccc(-n4nc(C(F)(F)F)c5c4CCN(C(=O)OC(C)(C)C)C5)c3)cc2o1", "note": "[Compound 037, tert-Butyl 1-[3-[(5-fluoro-2-methyl-1,3-benzoxazol-6-yl)carbamoyl]phenyl]-3-(trifluoromethyl)-6,7-dihydro-4H-pyrazolo[4,3-c]pyridine-5-carboxylate]", "values": [{"measurement": "EC50", "result": "> 2", "unit": "µM"}]}, {"smiles": "CN(C(=O)c1cccc(-n2nc(C(F)(F)F)c3c2CNCC3)c1)c1ccc2c(c1)OCO2", "note": "[Compound 038, N-(1,3-Benzodioxol-5-yl)-N-methyl-3-[3-(trifluoromethyl)-4,5,6,7-tetrahydropyrazolo[3,4-c]pyridin-1-yl] benzamide hydrochloride]", "values": [{"measurement": "EC50", "result": "< 1", "unit": "µM"}]}, {"smiles": "Cc1nc2ccc(N(C)C(=O)c3cccc(-n4nc(C(F)(F)F)c5c4CCN(C(=O)OC(C)(C)C)C5)c3)cc2o1", "note": "[Compound 039, tert-Butyl 1-[3-[methyl-(2-methyl-1,3-benzoxazol-6-yl)carbamoyl]phenyl]-3-(trifluoromethyl)-6,7-dihydro-4H-pyrazolo[4,3-c]pyridine-5-carboxylate]", "values": [{"measurement": "EC50", "result": "< 1", "unit": "µM"}]}, {"smiles": "Cc1nc2ccc(N(C)C(=O)c3cccc(-n4nc(C(F)(F)F)c5c4CCN(C)C5)c3)cc2o1", "note": "[Compound 040, N-Methyl-N-(2-methyl-1,3-benzoxazol-6-yl)-3-[5-methyl-3-(trifluoromethyl)-6,7-dihydro-4H-pyrazolo[4,3-c]pyridin-1-yl]benzamide]", "values": [{"measurement": "EC50", "result": "< 1", "unit": "µM"}]}, {"smiles": "CC(=O)Nc1ccc(N(C)C(=O)c2cccc(-n3nc(C(F)(F)F)c4c3CCN(C)C4)c2)cc1O", "note": "[Compound 041, N-(4-Acetamido-3-hydroxy-phenyl)-N-methyl-3-[5-methyl-3-(trifluoromethyl)-6,7-dihydro-4H-pyrazolo[4,3-c]pyridin-1-yl]benzamide]", "values": [{"measurement": "EC50", "result": "> 2", "unit": "µM"}]}, {"smiles": "COC(=O)c1ccc(C(=O)N2CCc3c(c(C(F)(F)F)nn3-c3cccc(C(=O)N(C)c4ccc5c(c4)OCO5)c3)C2)cc1", "note": "[Compound 042, Methyl 4-[1-[3-[1,3-benzodioxol-5-yl(methyl)carbamoyl]phenyl]-3-(trifluoromethyl)-6,7-dihydro-4H-pyrazolo[4,3-c]pyridine-5-carbonyl]benzoate]", "values": [{"measurement": "EC50", "result": "< 1", "unit": "µM"}]}, {"smiles": "CN(C(=O)c1cccc(-n2nc(C(F)(F)F)c3c2CCN(C(=O)c2ccc(C(=O)O)cc2)C3)c1)c1ccc2c(c1)OCO2", "note": "[Compound 044, 4-[1-[3-[1,3-Benzodioxol-5-yl(methyl)carbamoyl]phenyl]-3-(trifluoromethyl)-6,7-dihydro-4H-pyrazolo[4,3-c]pyridine-5-carbonyl]benzoic acid]", "values": [{"measurement": "EC50", "result": "> 2", "unit": "µM"}]}, {"smiles": "Cc1nc2cc(F)c(N(C)C(=O)c3cccc(-n4nc(C(F)(F)F)c5c4CCN(C)C5)c3)cc2o1", "note": "[Compound 046, N-(5-Fluoro-2-methyl-1,3-benzoxazol-6-yl)-N-methyl-3-[5-methyl-3-(trifluoromethyl)-6,7-dihydro-4H-pyrazolo[4,3-c]pyridin-1-yl]benzamide]", "values": [{"measurement": "EC50", "result": "< 1", "unit": "µM"}]}, {"smiles": "Cc1nc2cc(F)c(NC(=O)c3cccc(-n4nc(C(F)(F)F)c5c4CCN(C)C5)c3)cc2o1", "note": "[Compound 047, N-(5-Fluoro-2-methyl-1,3-benzoxazol-6-yl)-3-[5-methyl-3-(trifluoromethyl)-6,7-dihydro-4H-pyrazolo[4,3-c]pyridin-1-yl]benzamide]", "values": [{"measurement": "EC50", "result": "> 2", "unit": "µM"}]}, {"smiles": "CN(C(=O)c1cccc(-n2nc(C(F)(F)F)c3c2CCOC3)c1)c1ccc2c(c1)OCO2", "note": "[Compound 054, N-(1,3-Benzodioxol-5-yl)-N-methyl-3-[3-(trifluoromethyl)-6,7-dihydro-4H-pyrano[4,3-c]pyrazol-1-yl]benzamide]", "values": [{"measurement": "EC50", "result": "< 1", "unit": "µM"}]}, {"smiles": "COC(=O)c1ccc(S(=O)(=O)N2CCc3c(c(C(F)(F)F)nn3-c3cccc(C(=O)N(C)c4ccc5c(c4)OCO5)c3)C2)cc1", "note": "[Compound 055, Methyl 4-[[1-[3-[1,3-benzodioxol-5-yl(methyl)carbamoyl]phenyl]-3-(trifluoromethyl)-6,7-dihydro-4H-pyrazolo[4,3-c]pyridin-5-yl]sulfonyl]benzoate]", "values": [{"measurement": "EC50", "result": "< 1", "unit": "µM"}]}, {"smiles": "CNC(=O)N1CCc2c(c(C(F)(F)F)nn2-c2cccc(C(=O)N(C)c3ccc4c(c3)OCO4)c2)C1", "note": "[Compound 056, 1-[3-[1,3-Benzodioxol-5-yl(methyl)carbamoyl]phenyl]-N-methyl-3-(trifluoromethyl)-6,7-dihydro-4H-pyrazolo[4,3-c] pyridine-5-carboxamide]", "values": [{"measurement": "EC50", "result": "< 1", "unit": "µM"}]}, {"smiles": "CN(C(=O)c1cccc(-n2nc(C(F)(F)F)c3c2CCN(S(=O)(=O)c2ccc(C(=O)O)cc2)C3)c1)c1ccc2c(c1)OCO2", "note": "[Compound 057, 4-[[1-[3-[1,3-Benzodioxol-5-yl(methyl)carbamoyl]phenyl]-3-(trifluoromethyl)-6,7-dihydro-4H-pyrazolo[4,3-c]pyridin-5-yl]sulfonyl]benzoic acid]", "values": [{"measurement": "EC50", "result": "1 to 2", "unit": "µM"}]}, {"smiles": "CN(C(=O)c1cccc(-n2nc(C(F)(F)F)c3c2CCN(C(=O)C(C)(C)O)C3)c1)c1ccc2c(c1)OCO2", "note": "[Compound 058, N-(1,3-Benzodioxol-5-yl)-3-[5-(2-hydroxy-2-methyl-propanoyl)-3-(trifluoromethyl)-6,7-dihydro-4H-pyrazolo[4,3-c]pyridin-1-yl]-N-methyl-benzamide]", "values": [{"measurement": "EC50", "result": "< 1", "unit": "µM"}]}, {"smiles": "COC(=O)c1cccc(S(=O)(=O)N2CCc3c(c(C(F)(F)F)nn3-c3cccc(C(=O)N(C)c4ccc5c(c4)OCO5)c3)C2)c1", "note": "[Compound 059, Methyl 3-[[1-[3-[1,3-benzodioxol-5-yl(methyl)carbamoyl]phenyl]-3-(trifluoromethyl)-6,7-dihydro-4H-pyrazolo[4,3-c]pyridin-5-yl]sulfonyl]benzoate]", "values": [{"measurement": "EC50", "result": "< 1", "unit": "µM"}]}, {"smiles": "COC(=O)c1ccccc1S(=O)(=O)N1CCc2c(c(C(F)(F)F)nn2-c2cccc(C(=O)N(C)c3ccc4c(c3)OCO4)c2)C1", "note": "[Compound 060, Methyl 2-[[1-[3-[1,3-benzodioxol-5-yl(methyl)carbamoyl]phenyl]-3-(trifluoromethyl)-6,7-dihydro-4H-pyrazolo[4,3-c]pyridin-5-yl]sulfonyl]benzoate]", "values": [{"measurement": "EC50", "result": "< 1", "unit": "µM"}]}, {"smiles": "CN(C(=O)c1cccc(-n2nc(C(F)(F)F)c3c2CCN(S(=O)(=O)c2cccc(C(=O)O)c2)C3)c1)c1ccc2c(c1)OCO2", "note": "[Compound 061, 3-[[1-[3-[1,3-Benzodioxol-5-yl(methyl)carbamoyl]phenyl]-3-(trifluoromethyl)-6,7-dihydro-4H-pyrazolo[4,3-c]pyridin-5-yl]sulfonyl]benzoic acid]", "values": [{"measurement": "EC50", "result": "> 2", "unit": "µM"}]}, {"smiles": "CN(C(=O)c1cccc(-n2nc(C(F)(F)F)c3c2CCN(S(=O)(=O)c2ccccc2C(=O)O)C3)c1)c1ccc2c(c1)OCO2", "note": "[Compound 062, 2-[[1-[3-[1,3-Benzodioxol-5-yl(methyl)carbamoyl]phenyl]-3-(trifluoromethyl)-6,7-dihydro-4H-pyrazolo[4,3-c]pyridin-5-yl]sulfonyl]benzoic acid]", "values": [{"measurement": "EC50", "result": "> 2", "unit": "µM"}]}]}
